{"source": "patent US5936097A", "about": "“4,9-ethano-benzo(F)isoindole derivatives as farnesyl transferase inhibitors” (Rhone-Poulenc Rorer, S.A., priority 1995, dated 1999)"}
{"target": "T1, human farnesyl transferase (Homo sapiens, UniProt P49354+P49356)", "T1 construct": "human farnesyl transferase purified from THP1 cell cultures; endogenous in cells; host or cells: THP1 cell cultures (enzyme purified from the cells)", "assay": "inhibition of farnesyl transferase ((3H) farnesyl transfer from (3H) FPP to p21 H-ras)", "type": "biochemical", "conditions": "not given", "method_in_brief": "(§1)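 Radiometric transfer of [3H]farnesyl from 4.5 pmol [3H]FPP to 200 pmol p21 H-ras by ~5 ng human enzyme purified from THP1 cells, in 50 mM Tris-HCl, 5 mM MgCl2, 5 mM DTT, 0.2% octyl glucoside, 20 min at 37 °C. Protein precipitated with SDS/TCA in methanol, filter-bound counts measured; IC50 from 9 concentrations, triplicate.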", "units": {"IC50": "nM"}}
{"smiles": "CCOc1ccccc1CC(=O)N1C[C@H]2[C@@]3(c4ccccc4)CC[C@H](c4ccccc43)[C@@]2(C(=O)O)C1", "note": "[Example 75]", "IC50": 370}
{"smiles": "COc1ccccc1CCC(=O)N1C[C@@H]2[C@]3(c4ccccc4)CC[C@@H](c4ccccc43)[C@]2(C(=O)O)C1", "note": "(relative stereo) [Example 59, (3aRS,4SR,9SR,9aRS)-4,9-Ethano-2-(2-methoxyphenyl)propionyl-9-phenyl-2,3,3a,4,9,9a-hexahydro-1H-benzo[f]isoindole-3a-carboxylic acid]", "IC50": 5000}
{"smiles": "O=C(Cc1ccccc1F)N1C[C@@H]2[C@]3(c4ccccc4)CC[C@@H](c4ccccc43)[C@]2(C(=O)O)C1", "note": "(relative stereo) [Example 63, (3aRS,4SR,9SR,9aRS)-4,9-Ethano-2-(2-fluorophenyl)acetyl-9-phenyl-2,3,3a,4,9,9a-hexahydro-1H-benzo[f]isoindole-3a-carboxylic acid]", "IC50": 7000}
{"smiles": "O=C(Cc1ccccc1Br)N1C[C@H]2[C@@]3(c4ccccc4)CC[C@H](c4ccccc43)[C@@]2(C(=O)O)C1", "note": "(relative stereo) [Example 28, (3aRS, 4SR, 9SR, 9aRS)-4,9-ethano-2-(2-bromophenyl)acetyl-9-phenyl-2,3,3a,4,9,9a-hexahydro-1H-benzo[f]isoindole-3a-carboxylic acid]", "IC50": 3050}
{"smiles": "CCOP(=O)(C[C@]12CN(C(=O)Cc3ccccc3OC)C[C@H]1[C@@]1(c3ccccc3)CC[C@@H]2c2ccccc21)OCC", "note": "(relative stereo) [Example 22, diethyl ester of [(3aRS, 4SR, 9SR, 9aRS)-4,9-ethano-2-(2-methoxyphenyl)acetyl-9-phenyl-2,3,3a,4,9,9a-hexahydro-1H-benzo[f]isoindol-3a-yl]methylphosphonic acid]", "IC50": 10000}
{"smiles": "COc1ccccc1CC(=O)N1C[C@H]2[C@@]3(c4ccccc4)CC[C@H](c4ccccc43)[C@@]2(C(=O)O)C1", "note": "[Example 47, 4,9-ethano-2-[(2-methoxyphenyl)acetyl]-9-phenyl-2,3,3a(S),4(R),9(R),9a(S)-hexahydro-1H-benzo[f]isoindole-3a-carboxylic acid]", "IC50": 140}
{"smiles": "O=C(Cc1ccccc1Cl)N1C[C@@H]2[C@]3(c4ccccc4)CC[C@@H](c4ccccc43)[C@]2(C(=O)O)C1", "note": "(relative stereo) [Example 61, (3aRS,4SR,9SR,9aRS)-4,9-Ethano-2-(2-chlorophenyl)acetyl-9-phenyl-2,3,3a,4,9,9a-hexahydro-1H-benzo[f]isoindole-3a-carboxylic acid]", "IC50": 4700}
{"smiles": "COC(=O)[C@]12CN(C(=O)Cc3ccccc3OC)C[C@H]1[C@@]1(c3ccccc3)CC[C@@H]2c2ccccc21", "note": "(relative stereo) [Example 1, methyl ester of (3aRS, 4SR, 9SR, 9aRS)-4,9-ethano-2-(2-methoxyphenyl)acetyl-9-phenyl-2,3,3a,4,9,9a-hexahydro-1H-benzo[f]isoindole-3a-carboxylic acid]", "IC50": 410}
{"smiles": "O=C(Cc1ccccc1O)N1C[C@@H]2[C@]3(c4ccccc4)CC[C@@H](c4ccccc43)[C@]2(C(=O)O)C1", "note": "(relative stereo) [Example 60, (3aRS,4SR,9SR,9aRS)-4,9-Ethano-2-(2-hydroxyphenyl)acetyl-9-phenyl-2,3,3a,4,9,9a-hexahydro-1H-benzo[f]isoindole-3a-carboxylic acid]", "IC50": 1800}
{"target": "T1, human farnesyl transferase", "assay": "inhibition of farnesyl transferase ((3H) farnesyl transfer from (3H) FPP to p21 H-ras)", "type": "biochemical", "conditions": "human farnesyl transferase purified from THP1 cell cultures; p21 H-ras substrate; 20 minutes at 37° C.; 9 concentrations; read-out: in vitro inhibitory activity IC50", "method_in_brief": "as §1", "units": {"IC50": "nM"}}
{"smiles": "C=C(C(=O)N1C[C@H]2[C@@]3(c4ccccc4)CC[C@H](c4ccccc43)[C@@]2(C(=O)NCc2cccc(C(F)(F)F)c2)C1)c1ccccc1OC", "note": "[Example 89, (3aS,4R,9R,9aS)-N-[3-trifluorobenzyl]-4,9-ethano-2-[(2-methoxyphenyl)prop-2-en-1-oyl]-9-phenyl-2,3,3a,4,9,9a-hexahydro-1H-benzo[f]isoindole-3a-carboxamide]", "IC50": 780}
{"smiles": "COC(=O)[C@]12CN(C(=O)Cc3ccccc3OC)C[C@H]1[C@@]1(c3ccccc3)CC[C@@H]2c2cc(C=O)ccc21", "note": "(relative stereo) [Example 97, methyl ester of (3aRS,4SR,9SR,9aRS)-4,9-ethano-6-formyl-2-[(2-methoxyphenyl)acetyl]-9-phenyl-2,3,3a,4,9,9a-hexahydro-1H-benzo[f]isoindole-3a-carboxylic acid]", "IC50": 3950}
{"smiles": "COc1ccccc1CC(=O)N1C[C@H]2[C@@]3(c4ccccc4)CC[C@H](c4ccccc43)[C@@]2(NC(=O)C(CO)NC(=O)OC(C)(C)C)C1", "note": "(some centres unmarked) [Example 14]", "IC50": 8700}
{"smiles": "C=C(C(=O)N1C[C@H]2[C@@]3(c4ccccc4)CC[C@H](c4ccccc43)[C@@]2(C(=O)N[C@H](CO)c2ccccc2)C1)c1ccccc1OC", "note": "[Example 85, (3aS,4R,9R,9aS)-N-[1-(S)-1-phenyl-2-hydroxyethyl]-4,9-ethano-2[-(2-methoxyphenyl)prop-2-en-1-oyl]-9-phenyl-2,3,3a,4,9,9a-hexahydro-1H-benzo[f]isoindole-3a-carboxamide]", "IC50": 260}
{"smiles": "COc1ccccc1CC(=O)N1C[C@H]2[C@@]3(c4ccccc4)CC[C@H](c4ccccc43)[C@@]2(CC(C(=O)O)C(=O)O)C1", "note": "(relative stereo) [Example 24, 2-{(3aRS, 4SR, 9SR, 9aRS)-4,9-ethano-[(2-methoxyphenyl)acetyl]-9-phenyl-1,2,3,3a,9,9a-hexahydro-1H-benzo[f]isoindole-3a-}-methylmalonic acid]", "IC50": 4200}
{"smiles": "C=C(C(=O)N1C[C@H]2[C@@]3(c4ccccc4)CC[C@H](c4ccccc43)[C@@]2(C(=O)NC(C)(C)c2ccccc2)C1)c1ccccc1OC", "note": "[Example 86, (3aS,4R,9R,9aS)-N-(2,2-dimethylbenzyl)-4,9-ethano-2[-(2-methoxyphenyl)prop-2-en-1-oyl]-9-phenyl-2,3,3a,4,9,9a-hexahydro-1H-benzo[f]isoindole-3a-carboxamide]", "IC50": 4850}
{"smiles": "COc1ccccc1CC(=O)N1C[C@H]2[C@@]3(c4ccccc4)CC[C@H](c4ccccc43)[C@@]2(C(=O)NCC(=O)O)C1", "note": "(relative stereo) [Example 67, N-[(3aRS,4SR,9SR,9aRS)-4,9-ethano-2-(2-methoxy-phenyl)acetyl-9-phenyl-2,3,3a,4,9,9a-hexahydro-1H-benzo[f]isoindol-3a-yl]carbonylglycine]", "IC50": 950}
{"smiles": "C=C(C(=O)N1C[C@H]2[C@@]3(c4ccccc4)CC[C@H](c4ccccc43)[C@@]2(C(=O)NCc2cccnc2)C1)c1ccccc1OC", "note": "[Example 91, (3aS,4R,9R,9aS)-N-[(3-pyridyl)methyl]-4,9-ethano-2-[(2-methoxyphenyl)prop-2-en-1-oyl]-9-phenyl-2,3,3a,4,9,9a-hexahydro-1H-benzo[f]isoindole-3a-carboxamide]", "IC50": 160}
{"smiles": "COc1ccccc1CC(=O)N1C[C@H]2[C@@]3(c4ccccc4)CC[C@H](c4ccccc43)[C@@]2(NC(=O)C(N)CCSC)C1", "note": "(stereo partly drawn) [Example 13, (3aRS, 4SR, 9SR, 9aRS)-3a-methionylamino-4,9-ethano-2-(2-methoxyphenyl)acetyl-9-phenyl-2,3,3a,4,9,9a-hexahydro-1H-benzo[f]isoindole]", "IC50": 8800}
{"smiles": "C=C(C(=O)N1C[C@H]2[C@@]3(c4ccccc4)CC[C@H](c4ccccc43)[C@@]2(C(=O)N[C@H](C(=O)OC)c2ccccc2)C1)c1ccccc1OC", "note": "[Example 72]", "IC50": 690}
{"smiles": "CC(=O)Oc1ccccc1CC(=O)N1C[C@H]2[C@@]3(c4ccccc4)CC[C@H](c4ccccc43)[C@@]2(C(=O)O)C1", "note": "(relative stereo) [Example 29, (3aRS, 4SR, 9SR, 9aRS)-4,9-ethano-2-(2-acetoxyphenyl)acetyl-9-phenyl-2,3,3a,4,9,9a-hexahydro-1H-benzo[f]isoindole-3a-carboxylic acid]", "IC50": 2300}
{"smiles": "COc1ccccc1CC(=O)N1CC2C3(c4ccccc4)CCC(c4ccccc43)C2(C(=O)N[C@@H](CSCc2ccccc2)C(=O)O)C1", "note": "(stereo partly drawn) [Example 52, N-[(3aRS,4SR,9SR,9aRS)-4,9-ethano-2-(2-methoxyphenyl)acetyl-9-phenyl-2,3,3a,4,9,9a-hexahydro-1H-benzo[f]isoindol-3a-yl]carbonyl-S-benzyl-L-cysteine]", "IC50": 440}
{"smiles": "CNCCNC(=O)[C@]12CN(C(=O)Cc3ccccc3OC)C[C@H]1[C@@]1(c3ccccc3)CC[C@@H]2c2ccccc21", "note": "(relative stereo) [Example 5, (3aRS, 4SR, 9SR, 9aRS)-N-(2-methylaminoethyl)-4,9-ethano-2-(2-methoxyphenyl)acetyl-9-phenyl-2,3,3a,4,9,9a-hexahydro-1H-benzo[f]isoindole-3a-carboxamide]", "IC50": 7000}
{"smiles": "C=C(C(=O)N1C[C@H]2[C@@]3(c4ccccc4)CC[C@H](c4ccccc43)[C@@]2(C(=O)NCc2cccs2)C1)c1ccccc1OC", "note": "[Example 95, (3aS,4R,9R,9aS)-N-[(2-thienyl)-methyl]-4,9-ethano-2-[(2-methoxyphenyl)prop-2-en-1-oyl]-9-phenyl-2,3,3a,4,9,9a-hexahydro-1H-benzo[f]isoindole-3a-carboxamide]", "IC50": 270}
{"smiles": "COc1ccccc1CC(=O)N1C[C@H]2[C@@]3(c4ccccc4)CC[C@H](c4ccccc43)[C@@]2(CCC(=O)O)C1", "note": "(relative stereo) [Example 25, 3-[(3aRS, 4SR, 9SR, 9aRS)-4,9-ethano-2-(2-methoxyphenyl)acetyl-9-phenyl-1,2,3,3a,9,9a-hexahydro-1H-benzo[f]isoindol-3a-yl]propionic acid]", "IC50": 2600}
{"smiles": "COc1ccccc1CC(=O)N1C[C@H]2[C@@]3(c4ccccc4)CC[C@H](c4ccccc43)[C@@]2(CC(=O)NC(CCSC)C(=O)O)C1", "note": "(stereo partly drawn) [Example 21, N-[(3aRS, 4SR, 9SR, 9aRS)-4,9-ethano-2-(2-methoxyphenyl)acetyl-9-phenyl-2,3,3a,4,9,9a-hexahydro-1H-benzo[f]isoindole-3a-yl]acetylmethionine]", "IC50": 3750}
{"smiles": "COc1ccccc1CC(=O)N1C[C@H]2[C@@]3(c4ccccc4)CC[C@H](c4ccccc43)[C@@]2(NC(=O)CN)C1", "note": "(relative stereo) [Example 12, (3aRS, 4SR, 9SR, 9aRS)-3a-glycylamino-4,9-ethano-2-(2-methoxyphenyl)acetyl-9-phenyl-2,3,3a,4,9,9a-hexahydro-1H-benzo[f]isoindole]", "IC50": 7500}
